From patent US6906033B2, “Protease inhibitor peptides” (SCIOS NOVA, Inc., priority 1995, dated 2005)

Key:
[1] = Acute porcine cardiopulmonary bypass (CPB) model, postoperative bleeding; assay type: in vivo; conditions: pigs
Description: A randomized, double-blinded study using an acute porcine cardiopulmonary bypass (CPB) model was used to investigate the effect of KPI185-1 on postoperative bleeding. Sixteen pigs (55-65 kg) underwent 60 minutes of hypothermic (28° C.) open-chest CPB with 30 minutes of cardioplegic cardiac arrest. Pigs were randomized against a control solution of physiological saline (NS; n=8) or KPI-185 (n=8) groups. During aortic cross-clamping, the tricuspid valve was inspected through an atriotomy which was subsequently repaired. Following reversal of heparin with protamine, dilateral thoracostomy tubes were placed and shed blood collected for 3 hours. Shed blood volume and hemoglobin (Hgb) loss were calculated from total chest tube output and residual intrathoracic blood at time of sacrifice.

elastase = conditions: cited from earlier work
[2] = CPB; cited from earlier work
activated factor XII = target: T1, activated factor XII (Homo sapiens, UniProt P00748); conditions: cited from earlier work
T1 sequence (P00748 373-615 limits assumed): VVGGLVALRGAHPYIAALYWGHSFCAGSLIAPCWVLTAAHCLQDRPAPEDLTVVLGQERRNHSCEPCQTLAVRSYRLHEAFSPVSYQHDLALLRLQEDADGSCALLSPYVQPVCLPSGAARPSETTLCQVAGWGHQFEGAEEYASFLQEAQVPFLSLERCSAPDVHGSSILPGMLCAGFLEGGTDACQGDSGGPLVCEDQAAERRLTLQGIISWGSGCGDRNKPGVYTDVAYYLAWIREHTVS

Substance: KPI (−4→57; M15A, S17F) DD185: KPI (−4→57) variant with M15A, S17F, found by phage display on kallikrein, expressed in yeast from pDD185
- Total Hgb loss ([1]; after CPB, p=0.0005 vs. saline): 13.59±4.26 gm
- Thoracostomy drainage Hgb ([1]; at 30 minutes, p=0.004 vs. control): 4.41±1.45 gm/dl
- Thoracostomy drainage Hgb ([1]; at 60 minutes, p=0.0002 vs. control): 5.26±1.04 gm/dl
- Total blood loss ([1]; shed blood collected for 3 hours after CPB plus residual intrathoracic blood, p=0.009 vs. saline): 245.75 ± 66.24 mL

Substance: aprotinin
- inhibition of elastase (elastase): neither native aprotinin nor native KPI significantly inhibits elastase
- blood loss following bypass [2]: significant reduction in blood loss
- neutrophil activation [2]: does not appear to significantly reduce neutrophil activation
- inhibition of activated factor XII (activated factor XII): does not inhibit activated factor XII
